Experimental data: patent publication US6605625B2, “Ortho, meta-substituted bisaryl compounds, processes for their preparation, their use as medicaments, and pharmaceutical preparations comprising them” (Aventis Pharma Deutschland GmbH, priority 2000, dated 2003)

Target: T1, Kv1.5 channels from humans (Homo sapiens, UniProt P22460)
T1 construct: expressed in transfected cells; host or cells: Xenopus laevis oocytes injected with in vitro synthesized RNA
Assay: Kv1.5 currents in Xenopus oocytes, 2-microelectrode voltage clamp
Type: cell-based
Settings: human Kv1.5 expressed in Xenopus laevis oocytes; voltage jumps to 0 mV and 40 mV, 500 ms; room temperature; inhibition of Kv1.5 control current, Hill equation
Method: Kv1.5 channels from humans were expressed in Xenopus oocytes. To this end, oocytes from Xenopus laevis were first isolated and defolliculated. RNA coding for Kv1.5 synthesized in vitro was then injected into these oocytes. After a Kv1.5 protein expression for 1-7 days, Kv1.5 currents were measured on the oocytes using the 2-microelectrode voltage clamp technique. The Kv1.5 channels were in this case as a rule activated using voltage jumps to 0 mV and 40 mV lasting 500 ms. The bath was rinsed using a solution of the following composition: NaCl 96 mM, KCl 2 mM, CaCl2 1.8 mM, MgCl2 1 mM, HEPES 5 mM (titrated with NaOH to pH 7.4). These experiments were carried out at room temperature. The following were employed for data acquisition and analysis: Gene clamp amplifier (Axon Instruments, Foster City, USA) and MacLab D/A converter and software (ADInstruments, Castle Hill, Australia). The substances according to the invention were tested by adding them to the bath solution in different concentrations. The effects of the substances were calculated as the percentage inhibition of the Kv1.5 control current which was obtained when no substance was added to the solution. The data were then extrapolated using the Hill equation in order to determine the inhibition concentrations IC50 for the respective substances.

T1 sequence (P22460 whole entry): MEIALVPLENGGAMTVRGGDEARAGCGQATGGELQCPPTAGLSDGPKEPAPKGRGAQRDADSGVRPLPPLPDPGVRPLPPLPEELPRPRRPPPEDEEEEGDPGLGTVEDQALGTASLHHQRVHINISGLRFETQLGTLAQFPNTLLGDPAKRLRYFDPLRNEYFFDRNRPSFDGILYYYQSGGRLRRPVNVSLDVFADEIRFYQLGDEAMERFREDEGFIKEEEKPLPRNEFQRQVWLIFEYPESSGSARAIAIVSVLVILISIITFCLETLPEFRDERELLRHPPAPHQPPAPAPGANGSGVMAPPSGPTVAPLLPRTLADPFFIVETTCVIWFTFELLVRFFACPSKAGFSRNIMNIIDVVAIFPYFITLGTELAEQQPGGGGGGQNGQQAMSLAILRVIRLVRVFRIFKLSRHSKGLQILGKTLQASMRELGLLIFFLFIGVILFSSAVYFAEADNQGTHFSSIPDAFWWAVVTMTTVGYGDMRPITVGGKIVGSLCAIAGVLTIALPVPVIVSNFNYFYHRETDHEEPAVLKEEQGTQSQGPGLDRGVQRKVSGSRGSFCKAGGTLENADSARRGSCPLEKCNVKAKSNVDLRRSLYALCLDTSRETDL

Compound	IC50
COc1ccc(NC(=O)c2cccc(-c3ccccc3CNC(=O)OC(C)(C)C)n2)cc1 [Example 9]	3 µM
CC(C)(C)OC(=O)NCc1ccccc1-c1cccc(C(=O)NCCc2ccccn2)n1 [Example 11]	10 µM
Cc1ccc(C(=O)NCCC(C)C)cc1-c1ccccc1CNC(=O)OC(C)(C)C [Example 4]	6.1 µM
O=C(NCc1ccccc1-c1cccc(C(=O)NCc2ccc(F)cc2F)c1)OCc1ccccc1 [Example 15]	< 100 µM
CC(C)(C)OC(=O)NCc1ccccc1-c1ccc(Cl)c(C(=O)NCc2ccc(F)cc2F)c1 [Example 3]	< 100 µM
CCOc1ccc(C(=O)NCc2ccccc2-c2cccc(C(=O)Nc3ccc(OC)cc3)n2)cc1 [Example 24]	< 100 µM
COc1ccc(NC(=O)c2cccc(-c3ccccc3CNC(=O)O[C@@H](C)c3ccccc3)n2)cc1 [Example 19]	2 µM
COc1ccc(CC(=O)NCc2ccccc2-c2cccc(C(=O)NCc3ccc(F)cc3F)n2)cc1 [Example 21]	5.7 µM
CC(C)C[C@H](NC(=O)c1cccc(-c2ccccc2CNC(=O)OC(C)(C)C)n1)C(N)=O [Example 10]	< 100 µM
COc1ccc(CCC(=O)NCc2ccccc2-c2cccc(C(=O)Nc3ccc(OC)cc3)n2)cc1 [Example 23]	< 100 µM
Cc1ccc(C(=O)NCCC(C)C)cc1-c1ccccc1CNC(=O)OCc1ccccc1 [Example 13]	7 µM
CC(C)CCNC(=O)c1cccc(-c2ccccc2CNC(=O)OC(C)(C)C)n1 [Example 5]	6 µM
C[C@H](OC(=O)NCc1ccccc1-c1cccc(C(=O)NCCc2ccccn2)n1)c1ccccc1 [Example 12, (S)-1-(Phenylethyl) {2-[6-(2-pyridin-2-ylethylcarbamoyl)pyridin-2-yl]benzyl}carbamate]	2.2 µM
COc1ccc(CC(=O)NCc2ccccc2-c2cncc(C(=O)NCc3ccc(F)cc3F)c2)cc1 [Example 26]	7.4 µM
COc1ccc(CCC(=O)NCc2ccccc2-c2cc(C(=O)NCCC(C)C)ccc2C)cc1 [Example 30]	3.1 µM
COc1ccc(CC(=O)NCc2ccccc2-c2cccc(C(=O)NCCC(C)C)c2)cc1 [Example 28]	4.2 µM
CC(C)C[C@H](NC(=O)c1cccc(-c2ccccc2CNC(=O)O[C@@H](C)c2ccccc2)n1)C(N)=O [Example 18]	4.2 µM
CC(C)CCNC(=O)c1cccc(-c2ccccc2CNC(=O)OCc2ccccc2)c1 [Example 14]	< 100 µM
O=C(NCc1ccccc1-c1cccc(C(=O)NCc2ccc(F)cc2F)n1)OCc1ccccc1 [Example 16]	< 100 µM
CC(C)(C)OC(=O)NCc1ccccc1-c1cncc(C(=O)NCc2ccc(F)cc2F)c1 [Example 8]	< 100 µM
CC(C)CCNC(=O)c1cccc(-c2ccccc2CNC(=O)OCc2ccccc2)n1 [Example 17]	< 100 µM
COc1ccc(CC(=O)NCc2ccccc2-c2cccc(C(=O)NCCc3ccccn3)n2)cc1 [Example 22]	< 100 µM
COc1ccc(CC(=O)NCc2ccccc2-c2cc(C(=O)NCCC(C)C)ccc2C)cc1 [Example 29]	4 µM
COc1ccc(CC(=O)NCc2ccccc2-c2cccc(C(=O)NCc3ccc(F)cc3F)c2)cc1 [Example 27]	6 µM
CC(C)(C)OC(=O)NCc1ccccc1-c1cccc(C(=O)NCc2ccc(F)cc2F)n1 [Example 6]	< 100 µM
CC(C)CCNC(=O)c1cncc(-c2ccccc2CNC(=O)OC(C)(C)C)c1 [Example 7]	< 100 µM
CC(C)(C)OC(=O)NCc1ccccc1-c1cccc(C(=O)NCc2ccc(F)cc2F)c1 [Example 2]	< 100 µM
COc1ccc(CC(=O)NCc2ccccc2-c2cccc(C(=O)Nc3ccc(OC)cc3)n2)cc1 [Example 20, 6-(2-{[2-(4-Methoxyphenyl)acetylamino]methyl}phenyl)pyridine-2-carboxylic acid (4-methoxyphenyl)amide]	< 100 µM
